# Data reported in patent publication US20240294457A1, “Strained bi-functionalized trans-cyclooctenes” (Stichting Radboud Universiteit, priority 2021, published 2024).
# How the values were obtained:
# [1] = Kinetics study of fluorophore (AMC) release, fluorescence, with BP tetrazine; conditions: PBS pH=7.2, 37° C., first-order one phase fit
# Experimental: (§1) A procedure adapted from prior art was followed (Fan, X. et al., Optimized tetrazine derivatives for rapid bioorthogonal decaging in living cells. Angew. Chem. 2016, 128 (45), 14252-14256.)
# (§2) Stock solutions (all in DMSO) • Stock A (R): E-022a (10 mmolar) • Stock A (NR): E-022b (10 mmolar) • Stock B (DM): 3,6-Dimethyl-1,2,4,5-tetrazine (DM) (20 mmolar) • Stock B (BP): 3,6-Di-2-pyridyl-1,2,4,5-tetrazine (BP) (20 mmolar) • Stock PC: 7-Amino-4-methylcoumarin (10 mmolar) 2.5 μL of the tetrazine stock (DM or BP) was mixed with 395.5 μL of PBS (pH=7.2). 2 μL of the TCO stock (A (R) or A (NR)) was added to this. The reaction mixtures were incubated at 37° C. under mixing (300 rpm). Subsequently, the fluorescence (F1) was measured (ex: 380 nm, em. 450 nm) at certain time points after the addition of the TCO by aliquoting 30 μL in a 384 wells plate (Greiner, black non-binding flat bottom) and directly measuring with a Tecan Spark plate-reader. As control experiment the maximum amount of released AMC was measured (F2, Stock PC without tetrazine or TCO). […] The release efficiency (%) was calculated: F1/F2×100%. All experiments were executed in triplo and the data was processed using GraphPad Prism (version 9.0). The Kelim. values were determined by first-order exponential one phase decay approximations. […] For BP this value was 2.96*10^−6S^−1.
# [2] = Kinetics study of fluorophore (AMC) release, fluorescence, with DM tetrazine; conditions: PBS pH=7.2, 37° C.
# Experimental: as §1, §2
# [3] = Kinetics study of doxorubicin release by HPLC/LCMS; conditions: PBS pH=7.2, 37° C., directly after addition of tetrazine
# Experimental: Stock solutions (all in DMSO) • Stock E-025a: E-025a (10 mmolar) • Stock Ttz: 3,6-dimethyl-1,2,4,5-tetrazine (XA, 20 mmolar) Procedure: 100 μL of the TCO-Dox stock was added to 900 μL of PBS (pH=7.2) and HPLC analysis was done which only indicated starting material (t=13.08 min). Hereafter the reaction was incubated at 37° C. under mixing (300 rpm) and 500 μL of the Ttz stock was added. At certain time points after the addition of the Ttz the reaction mixture was analyzed by aliquoting 200 μL and analysis by HPLC/LCMS.
# [4] = Stability test of TCO in deuterated PBS buffer at 37° C. followed by 1H-NMR; type: physicochemical; conditions: covered from light
# Experimental: An NMR tube was charged with a solution of E-04a (41 mg) in deuterated PBS buffer (500 μl). The NMR sample was placed in a water bath at 37° C. while being covered from light by aluminum foil.
# [5] = Kinetics study of TCO-Tz click reaction by UV spectroscopy (540 nm); conditions: MeCN, 20° C.
# Experimental: FIG. 1: The kinetics of TCO E-02a and 3,6-di(pyridin-2-yl)-1,2,4,5-tetrazine with a concentration of 10 and 50 μM at 20° C. in MeCN.
# The reaction rate in a TCO-Tz click reaction of E-02a was measured under similar conditions as described in Versteegen et al., Angewandte Chemie International Edition 2013, 52 (52), 14112-14116. The second order reaction constant of the reaction between 3,6-di(pyridin-2-yl)-1,2,4,5-tetrazine and E-02a was determined under second order conditions in MeCN at 20° C. by UV spectroscopy. A cuvette was filled with MeCN (2.8 mL) and equilibrated at 20° C. A stock solution of tetrazine in DMSO (100 μl) was added to the cuvette. The absorption of the tetrazine moiety was measured at 540 nm. Next, the cuvette was removed from the apparatus to add a stock solution of E-02a in DMSO (100 μl) and briefly mixed the solution by shaking the cuvette before placing it back into the apparatus. The absorption at 540 nm was measured for 15 minutes. From this absorption at 540 nm, the concentration of tetrazine was calculated using a molar absorption coefficient of ε=430 M^−1 cm^−1. […] TCO reactions known from the prior art (Versteegen et al., Angewandte Chemie International Edition 2013, 52 (52), 14112-14116, DOI: 10.1002/anie.201305969) were assessed at 83.3 μM and afforded a lower rate of 62, 5 M^−1s^−1 under similar conditions.
# [6] = 19F-NMR kinetic study of click-to-release reaction (release of PFP)
# Experimental: FIG. 2: ^19F-NMR kinetic study of the click-to-release reaction of 20 mM TCO (E-03a) with 3,6-di(pyridin-2-yl)-1,2,4,5-tetrazine at 20° C.
# The ^19F NMR (377 MHz) spectrum of an NMR-tube filled with a solution of E-03a (5 mg, 1.0 equiv, 11.9 μmol) in CDCl3 (500 μl) was measured. Next, a solution of 3,6-di(pyridin-2-yl)-1,2,4,5-tetrazine (3.1 mg, 1.1 equiv, 13 μmol) in CDCl3 (100 μl) was added to the NMR tube. The tube was vigorously shaken and placed back in the NMR apparatus. The sample was measured within two minutes after the addition of the second compound. Every 48 seconds a measurement (number of scans: 4, relaxation delay: 5.8 see, range: −147.0 to −178.5 ppm) was taken of the sample. After 160 minutes the measurements were stopped.
# Only after elevating the temperature to +10° C., the pentafluorophenyl carbonate was released from the conjugated product. Release of payload from compounds of the invention was not only found to be fast, but also complete. […] The fastest payload release observed with their compounds afforded less than 20% release over 250 minutes.
compound,measurement,setting,value
"CCOC(=O)[C@H]1[C@@H]2CC[C@@H](OC(=O)Nc3ccc4c(C)cc(=O)oc4c3)/C=C\C[C@@H]21 [E-022a, COOEt-Exo-Axial-TCO-AMC]",Kelim. value of AMC release,[1],2.96*10^−6 S^−1
same,Kelim. value of AMC release,"[2]; DM tetrazine, first-order one phase fit",8.15*10^−5 S^−1
"CCOC(=O)[C@H]1[C@@H]2CC[C@@H](OC(=O)N[C@H]3C[C@H](O[C@H]4C[C@](O)(C(=O)CO)Cc5c(O)c6c(c(O)c54)C(=O)c4c(OC)cccc4C6=O)O[C@@H](C)[C@@H]3O)/C=C\C[C@@H]21 [E-025a, COOEt-Exo-Axial-TCO-PNP]",release of doxorubicin after addition of the tetrazine,[3],almost instant release
"CCOC(=O)[C@H]1[C@@H]2CCC(OC(=O)Nc3ccc4c(C)cc(=O)oc4c3)/C=C\C[C@@H]21 (stereo partly drawn) [E-022b, COOEt-Exo-Equatorial-TCO-AMC]",AMC release compared with E-022a,[2]; tetrazine (DM or BP) not specified,slower
"O=C(O)[C@H]1[C@@H]2CC[C@@H](O)/C=C/C[C@@H]21 [E-04a, (1S,5R,8R,9S, E)-5-hydroxybicyclo[6.1.0]non-3-ene-9-carboxylic acid]",changes in the 1H-NMR spectrum after 7 days,[4],no changes
"CCOC(=O)C1C2CC=CC(O)CCC21 (single isomer, unassigned) [E-02a]",second order rate constant k2 (reaction rate) of click reaction,[5]; concentration 10 μM,249 M⁻¹ s⁻¹
same,second order rate constant k2 (reaction rate) of click reaction,[5]; concentration 50 μM,437 M⁻¹ s⁻¹
"CCOC(=O)[C@H]1[C@@H]2CCC(OC(=O)Oc3c(F)c(F)c(F)c(F)c3F)C=CC[C@@H]21 (stereo in doubt) [E-03b, ethyl (1S,5R,8R,9S, E)-5-(((perfluorophenoxy)carbonyl)oxy)bicyclo[6.1.0]non-3-ene-9-carboxylate]",release rate compared with E-03a,[6]; E-03b used instead of E-03a,several factors slower
"CCOC(=O)[C@H]1[C@@H]2CC[C@@H](OC(=O)Oc3c(F)c(F)c(F)c(F)c3F)/C=C/C[C@@H]21 [E-03a, ethyl (1S,5R,8R,9S, E)-5-(((perfluorophenoxy)carbonyl)oxy)bicyclo[6.1.0]non-3-ene-9-carboxylate]",release of PFP (pentafluorophenolate) after 20 minutes,"[6]; 20 mM TCO, CDCl3, 20° C., 1.1 equiv tetrazine",Almost complete release
same,release upon tautomerization from the click product,"[6]; lower temperatures, 40 mM, dipyridyl tetrazine",instantaneous
same,formation of pentafluorophenol from click conjugate,"[6]; −20° C., 40 mM, dipyridyl tetrazine",did not show any formation of pentafluorophenol
